Measurements from ChEMBL document CHEMBL1147421, “Diamine derivatives with antiparasitic activities” (Bioorg Med Chem Lett, 2004).
“And” between values parts separate entries of the source, which are not always exact repeats. Identical values can stand only once.

Tests used:
[1] = Effective concentration expressed as antiparasitic activity against Leishmania promastigotes (Leishmania donovani); NA = Not active; type: functional
[2] = tested on: Plasmodium falciparum; experiment: Antiparasitic activity against chloroquine-resistant Plasmodium falciparum W2; type: functional, organism-based
[3] = tested on: Plasmodium falciparum; experiment: Antiparasitic activity against Plasmodium falciparum D6; type: functional, organism-based
[4] = Antiparasitic activity against Leishmania promastigotes (Leishmania donovani); type: functional

Compound | EC50 [1] | EC50 [2] | EC50 [3] | EC50 [4] | EC50 ([2]; Plasmodium falciparum) [µM] | EC50 ([3]; Plasmodium falciparum) [µM]
NCCCN(Cc1ccc(O)cc1)Cc1ccc(O)cc1.O=C(O)C(F)(F)F | Not Active | Not Active | Not Active | – | – | –
COc1ccc(CN(CCCN)Cc2ccc(OC)c(O)c2)cc1O.O=C(O)C(F)(F)F | Not Active | Not Active | Not Active | – | – | –
NCCCN(Cc1ccccc1)Cc1ccc(Cc2ccncc2)cc1.O=C(O)C(F)(F)F | Not Active | Not Active | Not Active | – | – | –
NCCCN(Cc1ccc(OCc2c(F)c(F)c(F)c(F)c2F)cc1)Cc1ccc(OCc2c(F)c(F)c(F)c(F)c2F)cc1 | – | 3.29 µM | 2.68 µM | 3.81 µM and 1.95 µM | 3.16 | 2.24
COc1cccc(CN(CCCCN)Cc2cccc(OC)c2)c1.O=C(O)C(F)(F)F | – | – | Not Active | 10.8 µM | 6.1 | –
COc1ccc(CN(CCCCN)Cc2ccc(OC)cc2)cc1.O=C(O)C(F)(F)F | – | – | Not Active | 10.6 µM | 6.78 | –
COc1cc(CN(CCCCN)Cc2ccc(OCc3ccccc3)c(OC)c2)ccc1OCc1ccccc1 | – | – | – | 1.83 µM | 1.68 | 1.07
CC(C)(C)c1ccc(COc2ccc(CN(CCCCN)Cc3ccc(OCc4ccc(C(C)(C)C)cc4)cc3)cc2)cc1 | – | 6.42 µM and 2.09 µM | – | 8.92 µM and 3 µM | – | 1.07
NCCCCN(Cc1ccc(Cl)cc1)Cc1ccc(Cl)cc1.O=C(O)C(F)(F)F | – | Not Active | Not Active | 3.77 µM | – | –
NCCCCN(Cc1ccc(OCCc2ccccc2)cc1)Cc1ccc(OCCc2ccccc2)cc1.O=C(O)C(F)(F)F | – | Not Active | 8.68 µM | 13 µM and 27 µM | – | 7.43
COc1cc(CN(CCCN)Cc2cc(OC)cc(OC)c2)cc(OC)c1.O=C(O)C(F)(F)F | – | Not Active | Not Active | 9.42 µM | – | –
COc1ccc(CN(CCCCN)Cc2ccccc2)cc1OC.O=C(O)C(F)(F)F | – | – | Not Active | 8.36 µM | 3.62 | –
CCCCOc1ccc(CN(CCCN)Cc2ccc(OCCCC)cc2)cc1 | – | 6.44 µM | 4.1 µM | 1.22 µM and 1.27 µM | 6.64 | 4.37
COc1ccc(OC)c(CN(CCCCN)Cc2cc(OC)ccc2OC)c1.O=C(O)C(F)(F)F | – | Not Active | Not Active | 5.37 µM | – | –
CC(C)c1ccc(CN(CCCCN)Cc2ccccc2)cc1 | – | – | – | 1.88 µM | 10.1 | 9.66
COc1cc(CN(CCCN)Cc2ccc(O)c(OC)c2)ccc1O.O=C(O)C(F)(F)F | Not Active | Not Active | Not Active | – | – | –
NCCCCN(Cc1ccc(OCc2c(F)c(F)c(F)c(F)c2F)cc1)Cc1ccc(OCc2c(F)c(F)c(F)c(F)c2F)cc1 | – | 2.07 µM | – | 2.52 µM and 2.97 µM | 2.16 | 0.68
CCCCOc1ccc(CN(CCCCN)Cc2ccc(OCCCC)cc2)cc1 | – | 2.9 µM | – | 2.47 µM and 3.92 µM | 4.18 | 4.09
NCCCN(Cc1ccc(Br)o1)Cc1ccc(Br)o1.O=C(O)C(F)(F)F | – | Not Active | Not Active | 19.8 µM | – | –
NCCCN(Cc1ccc(OCc2ccccc2)cc1)Cc1ccc(OCc2ccccc2)cc1 | – | – | – | 1.12 µM | 6.03 | 4.99
CCCCN(CCCC)CCCN.O=C(O)C(F)(F)F | – | Not Active | – | 4.66 µM | – | 6.33

Compound | EC50 [1] | EC50 [2] | EC50 [3] | EC50 [4] | EC50 ([2]; Plasmodium falciparum) [µM] | EC50 ([3]; Plasmodium falciparum) [µM]
NCCCCN(Cc1ccc(O)cc1)Cc1ccc(O)cc1.O=C(O)C(F)(F)F | Not Active | Not Active | Not Active | – | – | –
COc1cc(CN(CCCN)Cc2ccc(OCc3ccccc3)c(OC)c2)ccc1OCc1ccccc1 | – | – | – | 0.67 µM | 2.81 | 2.97
COc1ccc(CN(CCCCN)Cc2ccc(OC)cc2OC)c(OC)c1.O=C(O)C(F)(F)F | Not Active | Not Active | – | – | – | 7.76
NCCCN(Cc1ccncc1)Cc1ccncc1.O=C(O)C(F)(F)F | Not Active | Not Active | Not Active | – | – | –
NCCCN(Cc1ccccc1)Cc1ccc(Cc2ccc(Br)o2)cc1.O=C(O)C(F)(F)F | – | – | Not Active | 20.6 µM | 5.72 | –
NCCCCN(Cc1ccccc1)Cc1ccncc1.O=C(O)C(F)(F)F | Not Active | Not Active | Not Active | – | – | –
CC(C)c1ccc(CN(CCCN)Cc2ccccc2)cc1 | – | – | – | 1.58 µM | 2.19 | 7.31
NCCCN(Cc1ccc(OCc2ccc(Cl)c(Cl)c2)cc1)Cc1ccc(OCc2ccc(Cl)c(Cl)c2)cc1 | – | 4.11 µM | 1.54 µM | 0.97 µM and 2.57 µM | 3.2 | 1.34
NCCCN(Cc1ccccc1)Cc1ccc(OCc2ccccc2)cc1 | – | – | – | 1.37 µM | 3.79 | 4.43
COc1ccc(CN(CCCN)Cc2ccc(OC)cc2)cc1.O=C(O)C(F)(F)F | – | – | Not Active | 10 µM | 9.34 | –
NCCCCN(Cc1ccc(OCCCc2ccccc2)cc1)Cc1ccc(OCCCc2ccccc2)cc1 | – | 2.53 µM | 1.04 µM | 2.46 µM and 2.96 µM | 3.07 | 1.12
NCCCCN(Cc1ccccc1)Cc1ccc(C(=O)O)cc1.O=C(O)C(F)(F)F | – | Not Active | Not Active | 10.3 µM | – | –
NCCCN(Cc1ccc(Cl)cc1)Cc1ccc(Cl)cc1.O=C(O)C(F)(F)F | – | – | Not Active | 8.69 µM | 10.1 | –
CC(C)c1ccc(CN(CCCCN)Cc2ccc(C(C)C)cc2)cc1.O=C(O)C(F)(F)F | – | – | Not Active | 3 µM | 7.29 | –
NCCCN(Cc1ccccc1)Cc1ccc(C(=O)O)cc1.O=C(O)C(F)(F)F | – | Not Active | Not Active | 8.97 µM | – | –
NCCCCN(Cc1ccc(Br)o1)Cc1ccc(Br)o1.O=C(O)C(F)(F)F | – | Not Active | Not Active | 19.2 µM | – | –
COc1ccc(CN(CCCCN)Cc2ccc(OC)c(O)c2)cc1O.O=C(O)C(F)(F)F | Not Active | Not Active | Not Active | – | – | –
NCCCCN(Cc1ccccc1)Cc1ccc(Cl)cc1.O=C(O)C(F)(F)F | – | Not Active | Not Active | 1.61 µM | – | –
COc1ccc(CN(CCCN)Cc2ccc(OC)cc2OC)c(OC)c1.O=C(O)C(F)(F)F | – | – | Not Active | 20.5 µM | 9.42 | –
NCCCCN(Cc1ccccc1)Cc1ccc(Br)o1.O=C(O)C(F)(F)F | – | Not Active | Not Active | 21.1 µM | – | –
